The source of these data is patent publication US8394825B2, “Compound” (Sterix Limited, priority 2007, dated 2013).

One data set relates to uterotrophic activity. To be noted: cited from earlier work; for oestrogenicity: rat, in vivo.
For data set [1], the target named is T1, E1-STS (Homo sapiens, UniProt P08842).
T1 sequence (P08842 22-583): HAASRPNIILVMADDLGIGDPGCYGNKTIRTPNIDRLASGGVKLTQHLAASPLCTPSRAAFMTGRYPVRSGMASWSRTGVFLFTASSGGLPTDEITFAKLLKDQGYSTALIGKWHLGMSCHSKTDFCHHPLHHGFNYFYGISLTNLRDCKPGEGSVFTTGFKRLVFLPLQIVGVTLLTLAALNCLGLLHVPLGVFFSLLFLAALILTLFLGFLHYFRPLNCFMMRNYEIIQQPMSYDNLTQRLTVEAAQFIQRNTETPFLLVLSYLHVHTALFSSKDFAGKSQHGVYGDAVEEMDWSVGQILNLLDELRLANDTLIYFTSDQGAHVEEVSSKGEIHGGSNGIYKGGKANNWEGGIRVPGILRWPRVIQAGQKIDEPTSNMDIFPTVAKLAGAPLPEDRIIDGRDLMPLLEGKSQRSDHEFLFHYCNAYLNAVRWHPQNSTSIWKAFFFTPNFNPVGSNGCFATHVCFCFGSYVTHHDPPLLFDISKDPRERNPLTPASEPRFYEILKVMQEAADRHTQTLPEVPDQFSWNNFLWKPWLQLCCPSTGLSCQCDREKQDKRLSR
As to conditions: cited from earlier work.

The conditions of data set [2]: cited from earlier work.
For data set [3], the target named is T1, E1-STS. Set-up: endogenous in cells; host or cells: MCF-7 cells (intact). As to conditions: intact MCF-7 cells, 0.1 nM; cited from earlier work.
For the next data set, the system named is DU145 cells. Kind of data set: Antiproliferative assay in DU145 cells, WST-1 cell proliferation assay, 96 hours (GI50). The format is cell-based. To be noted: Homo sapiens, DU-145, 96 hours post-treatment. In short, it runs like this: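 DU145 cells seeded at 5000 cells/well, treated with […] compound or vehicle for 96 h. Viability read by WST-1, expressed as percent of mean control, GI50 derived; triplicate experiments.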

For orientation: GI50 means the concentration giving 50% growth inhibition. The melting point is the temperature of the solid-liquid transition.

Take `COc1cc2c(cc1OS(N)(=O)=O)CC[C@@H]1[C@@H]2CC[C@]2(C)C(=O)CC[C@@H]12` [2-methoxyoestrone-3-O-sulphamate]: in the data set on uterotrophic activity, the oestrogenicity entry was “devoid of oestrogenicity”. Further, the “potency as steroid sulphatase inhibitor relative to EMATE” value on E1-STS [1] is given as “equipotent with EMATE”.
For `C[C@]12CC[C@@H]3c4ccc(OS(=O)(=O)O)cc4CC[C@H]3[C@@H]1CCC2=O` [E1S, oestrone sulphate], in data set [2], the half-life in blood was 10 to 12 h.
With `CC12CCC3c4ccc(OS(N)(=O)=O)cc4CCC3C1CCC2=O` (stereo not drawn) [EMATE, oestrone-3-sulphamate], the “inhibition of E1-STS activity” value at E1-STS [3] is “more than 99%”. Moreover, the oestrogenicity result with uterotrophic activity is recorded as “potent oestrogenic properties”. For the same compound, the “oral uterotrophic activity relative to estradiol” value with uterotrophic activity (rats, oral) is 100 times. On E1-STS [1], the “mode of E1-STS enzyme inhibition (inactivation)” value (from here on “mode of E1-STS enzyme inhibition”) is “time- and concentration-dependent manner”.
In turn, `COc1cc2c(cc1O)CCN(S(=O)(=O)c1ccccc1OC)C2=O` [compound 200, 6-Hydroxy-7-methoxy-2-(2-methoxy-benzenesulfonyl)-3,4-dihydro-2H-isoquinolin-1-one] showed a melting point of 222 to 224 °C. The compound further came in with a 50% growth inhibitory concentration (GI50) in the data set with DU145 cells (triplicate) above 100 µM.
For `COc1cccc(S(=O)(=O)N2CCc3cc(O)c(OC)cc3C2=O)c1` [compound 201, 6-Hydroxy-7-methoxy-2-(3-methoxy-benzenesulfonyl)-3,4-dihydro-2H-isoquinolin-1-one], in that order: 195 to 197 °C and above 100 µM.
In turn, `COc1ccc(S(=O)(=O)N2CCc3cc(O)c(OC)cc3C2=O)cc1` [compound 202, 6-Hydroxy-7-methoxy-2-(4-methoxy-benzenesulfonyl)-3,4-dihydro-2H-isoquinolin-1-one] yielded a melting point of 202 to 204 °C. The GI50 in the data set with DU145 cells (triplicate) was above 100 µM.
Regarding `COc1cc2c(cc1O)CCN(S(=O)(=O)c1cccc(Cl)c1)C2=O` [compound 203, 2-(3-Chloro-benzenesulfonyl)-6-hydroxy-7-methoxy-3,4-dihydro-2H-isoquinolin-1-one], the melting point was in the range of 178 to 181 °C. The concentration for 50% growth inhibition (GI50) with DU145 cells (50% growth inhibition) is above 100 µM.
As for `COc1cccc(CN2Cc3cc(OC)c(O)cc3CC2C)c1` (stereo not drawn) [compound 217, 2-(3-Methoxybenzyl)-1,2,3,4-tetrahydro-7-methoxy-3-methylisoquinolin-6-ol], the melting point is 100 to 105 °C. The GI50 in the data set on DU145 cells (50% growth inhibition) was below 10 µM.
With `COc1cc(CN2Cc3cc(OC)c(O)cc3CC2C)cc(OC)c1` (stereo not drawn) [compound 218, 2-(3,5-Dimethoxybenzyl)-1,2,3,4-tetrahydro-7-methoxy-3-methylisoquinolin-6-ol], the melting point was 155 to 158 °C. In addition, in the data set with DU145 cells (50% growth inhibition), the concentration for 50% growth inhibition (GI50) lay in the range of 10 to 50 µM.
For `COc1cc2c(cc1O)CC(C)(C)N(C(=O)c1cc(OC)c(OC)c(OC)c1)C2` [compound 234, (6-Hydroxy-7-methoxy-3,3-dimethyl-3,4-dihydro-1H-isoquinolin-2-yl)-(3,4,5-trimethoxy-phenyl)-methanone], the melting point was 159 to 162 °C. In the data set with DU145 cells (50% growth inhibition), this compound gave a GI50 above 100 µM.
As for `COc1cc2c(cc1OS(N)(=O)=O)CC(C)(C)N(C(=O)c1cc(OC)c(OC)c(OC)c1)C2` [compound 236, Sulfamic acid 7-methoxy-3,3-dimethyl-2-(3,4,5-trimethoxy-benzoyl)-1,2,3,4-tetrahydro-isoquinolin-6-yl ester], the melting point fell in the range of 172 to 176 °C. Further, the GI50 with DU145 cells (50% growth inhibition) is above 100 µM.
For `COc1cc(OC)cc(C(=O)N2Cc3cc(OC)c(OS(N)(=O)=O)cc3CC2(C)C)c1` [compound 237, Sulfamic acid 2-(3,5-dimethoxy-benzoyl)-7-methoxy-3,3-dimethyl-1,2,3,4-tetrahydro-isoquinolin-6-yl ester], in that order: > 180 °C (dec.) and above 100 µM.
For the compound oestrone-3-N-sulphamate, at E1-STS [1], the “mode of E1-STS enzyme inhibition” value is on record as “weaker non-time-dependent inactivators”.
For oestrone-3-S-sulphamate, the “mode of E1-STS enzyme inhibition” value at E1-STS [1] is “weaker non-time-dependent inactivators”.
